Results reported in the NIST ThermoML archive (doi:10.1016/j.jct.2018.11.004).

Test: molar heat capacity at saturation pressure
Settings: Small (less than 1 g) adiabatic calorimetry

CC(C)[C@@H]1CC[C@@H](C)C[C@H]1O [L-menthol]
Settings	molar heat capacity [J/K/mol]
213.42 K, Crystal 1	178.9
215.24 K, Crystal 1	180.2
216.36 K, Crystal 1	180.9
217.07 K, Crystal 1	181.5
218.32 K, Crystal 1	182.5
218.89 K, Crystal 1	182.9
220.14 K, Crystal 1	183.7
220.72 K, Crystal 1	184.2
221.96 K, Crystal 1	185.1
222.55 K, Crystal 1	185.4
223.78 K, Crystal 1	186.5
225.6 K, Crystal 1	187.8
227.43 K, Crystal 1	189.1
229.25 K, Crystal 1	190.5
231.07 K, Crystal 1	191.9
232.89 K, Crystal 1	193.3
234.71 K, Crystal 1	194.7
236.53 K, Crystal 1	196.1
238.35 K, Crystal 1	197.4
240.18 K, Crystal 1	198.8
242 K, Crystal 1	200.2
243.83 K, Crystal 1	201.7
245.65 K, Crystal 1	203.1
247.48 K, Crystal 1	204.5
249.3 K, Crystal 1	206
251.12 K, Crystal 1	207.5
252.95 K, Crystal 1	208.9
254.77 K, Crystal 1	210.4
256.59 K, Crystal 1	212
258.41 K, Crystal 1	213.7
260.23 K, Crystal 1	215.2
262.05 K, Crystal 1	216.8
263.88 K, Crystal 1	218.5
265.7 K, Crystal 1	220.1
267.52 K, Crystal 1	221.7
269.34 K, Crystal 1	223.4
271.17 K, Crystal 1	225.1
272.99 K, Crystal 1	226.5
274.82 K, Crystal 1	227.9
276.64 K, Crystal 1	229.6
278.46 K, Crystal 1	231.1
278.81 K, Crystal 1	231.4
280.29 K, Crystal 1	232.6
280.63 K, Crystal 1	233
282.11 K, Crystal 1	234.2
282.45 K, Crystal 1	234.5
283.93 K, Crystal 1	235.8
284.26 K, Crystal 1	236.1
285.75 K, Crystal 1	237.3
286.08 K, Crystal 1	237.7
287.57 K, Crystal 1	239
287.88 K, Crystal 1	239.5
289.39 K, Crystal 1	240.8
289.68 K, Crystal 1	241.3
290.89 K, Crystal 1	242.4
291.08 K, Crystal 1	242.5
291.22 K, Crystal 1	242.6
291.47 K, Crystal 1	242.9
291.8 K, Crystal 1	243.3
292.76 K, Crystal 1	244.5
293.04 K, Crystal 1	244.4
293.06 K, Crystal 1	244.7
293.25 K, Crystal 1	244.8
293.66 K, Crystal 1	245.4
294.53 K, Crystal 1	246.2
294.86 K, Crystal 1	246.6
294.94 K, Crystal 1	246.6
295.02 K, Crystal 1	246.7
295.44 K, Crystal 1	247.2
296.68 K, Crystal 1	248.4
296.79 K, Crystal 1	248.6
296.82 K, Crystal 1	248.6
298.5 K, Crystal 1	250.6
298.55 K, Crystal 1	250.5
298.69 K, Crystal 1	250.9
312.2 K, Liquid	370.6
314.15 K, Liquid	373.6
316.02 K, Liquid	376.5
317.57 K, Liquid	379.5
317.87 K, Liquid	379.7
318.1 K, Liquid	380.3
318.47 K, Liquid	380.7
318.82 K, Liquid	381.4
319.28 K, Liquid	381.8
319.72 K, Liquid	382.6
320.06 K, Liquid	383.3
320.34 K, Liquid	383.5
320.78 K, Liquid	384.6
321.01 K, Liquid	384.9
321.31 K, Liquid	385.3
321.56 K, Liquid	385.4
322.18 K, Liquid	386.6
322.55 K, Liquid	386.9
323.31 K, Liquid	388.4
323.4 K, Liquid	388.2
323.45 K, Liquid	388.5
323.79 K, Liquid	388.8
324.01 K, Liquid	389.3
325.28 K, Liquid	391.1
325.83 K, Liquid	392
325.85 K, Liquid	392.2
327.12 K, Liquid	393.8
327.67 K, Liquid	394.8
328.34 K, Liquid	395.8
328.95 K, Liquid	396.4
329.49 K, Liquid	397.5
330.79 K, Liquid	399.1
330.84 K, Liquid	399.3
331.3 K, Liquid	400.1
332.62 K, Liquid	401.7
333.11 K, Liquid	402.5
333.33 K, Liquid	402.6
334.46 K, Liquid	404.2
335.81 K, Liquid	406
336.3 K, Liquid	406.5
338.14 K, Liquid	408.8
338.29 K, Liquid	409
339.98 K, Liquid	411.3
340.77 K, Liquid	412.1
341.82 K, Liquid	413.4
343.25 K, Liquid	415.1
343.66 K, Liquid	415.8
345.5 K, Liquid	417.9
345.72 K, Liquid	418.1
347.35 K, Liquid	419.8
348.2 K, Liquid	420.7
349.19 K, Liquid	421.7
350.66 K, Liquid	423
351.04 K, Liquid	423.4
352.88 K, Liquid	425.1
353.12 K, Liquid	425.1
354.73 K, Liquid	426.7
355.58 K, Liquid	427.2
356.58 K, Liquid	428.4
358.04 K, Liquid	429.4
358.43 K, Liquid	429.7
360.27 K, Liquid	431.1
360.49 K, Liquid	431
362.12 K, Liquid	432.6
362.94 K, Liquid	432.8
363.97 K, Liquid	433.8
365.39 K, Liquid	434.2
365.82 K, Liquid	435.5
367.67 K, Liquid	436.2
367.84 K, Liquid	435.7
